# Experimental data as given in ChEMBL document CHEMBL5303573, “Mapping human microbiome drug metabolism by gut bacteria and their genes” (Nature, 2019).
# What was measured:
# [1] = bacteroides eggerthii, 12 h, 2 µM
# Description: The drug is tested on Bacteroides eggerthii strain: DSM20697 for biotransformation. The drug concentrations were measured before and after a 12-h incubation by liquid-chromatography-coupled mass spectrometry (LC–MS)
# [2] = The drug is tested on Bifidobacterium longum subsp. Infantis strain: CCUG52486 for biotransformation. The drug concentrations were measured before and after a 12-h incubation by liquid-chromatography-coupled mass spectrometry (LC–MS); conditions: 2 µM
# [3] = The drug is tested on Bacteroides dorei strain: DSM17855 for biotransformation. The drug concentrations were measured before and after a 12-h incubation by liquid-chromatography-coupled mass spectrometry (LC–MS); conditions: phocaeicola dorei, 2 µM
# [4] = The drug is tested on Clostridium symbiosum strain: ATCC14940 for biotransformation. The drug concentrations were measured before and after a 12-h incubation by liquid-chromatography-coupled mass spectrometry (LC–MS); conditions: 2 µM
# [5] = bacteroides stercoris, 12 h, 2 µM
# Description: The drug is tested on Bacteroides stercoris strain: ATCC43183 for biotransformation. The drug concentrations were measured before and after a 12-h incubation by liquid-chromatography-coupled mass spectrometry (LC–MS)
# [6] = The drug is tested on Bacteroides vulgatus strain: ATCC8482 for biotransformation. The drug concentrations were measured before and after a 12-h incubation by liquid-chromatography-coupled mass spectrometry (LC–MS); conditions: phocaeicola vulgatus, 2 µM
# [7] = roseburia intestinalis, 12 h, 2 µM
# Description: The drug is tested on Roseburia intestinalis strain: L1-82 for biotransformation. The drug concentrations were measured before and after a 12-h incubation by liquid-chromatography-coupled mass spectrometry (LC–MS)
# [8] = akkermansia muciniphila, 12 h, 2 µM
# Description: The drug is tested on Akkermansia muciniphila strain: ATCC BAA-835 for biotransformation. The drug concentrations were measured before and after a 12-h incubation by liquid-chromatography-coupled mass spectrometry (LC–MS)
# [9] = The drug is tested on Ruminococcus lactaris strain: ATCC29176 for biotransformation. The drug concentrations were measured before and after a 12-h incubation by liquid-chromatography-coupled mass spectrometry (LC–MS); conditions: 2 µM
# [10] = The drug is tested on Bifidobacterium ruminantium strain: fecal isolate for biotransformation. The drug concentrations were measured before and after a 12-h incubation by liquid-chromatography-coupled mass spectrometry (LC–MS); conditions: 2 µM
# [11] = bacteroides thetaiotaomicron, 12 h, 2 µM
# Description: The drug is tested on Bacteroides thetaiotaomicron strain: 7330 for biotransformation. The drug concentrations were measured before and after a 12-h incubation by liquid-chromatography-coupled mass spectrometry (LC–MS)
# [12] = The drug is tested on Bacteroides fragilis strain: ATCC43859 for biotransformation. The drug concentrations were measured before and after a 12-h incubation by liquid-chromatography-coupled mass spectrometry (LC–MS); conditions: 2 µM
# [13] = bifidobacterium adolescentis, 12 h, 2 µM
# Description: The drug is tested on Bifidobacterium adolescentis strain: ATCC 15703 for biotransformation. The drug concentrations were measured before and after a 12-h incubation by liquid-chromatography-coupled mass spectrometry (LC–MS)
# [14] = bacteroides intestinalis, 12 h, 2 µM
# Description: The drug is tested on Bacteroides intestinalis strain: DSM17393 for biotransformation. The drug concentrations were measured before and after a 12-h incubation by liquid-chromatography-coupled mass spectrometry (LC–MS)
# [15] = The drug is tested on Bacteroides uniformis strain: ATCC8492 for biotransformation. The drug concentrations were measured before and after a 12-h incubation by liquid-chromatography-coupled mass spectrometry (LC–MS); conditions: 2 µM
# [16] = The drug is tested on Bacteroides fragilis strain: HMW610 for biotransformation. The drug concentrations were measured before and after a 12-h incubation by liquid-chromatography-coupled mass spectrometry (LC–MS); conditions: 2 µM
# [17] = The drug is tested on Providencia rettgeri strain: DSM1131 for biotransformation. The drug concentrations were measured before and after a 12-h incubation by liquid-chromatography-coupled mass spectrometry (LC–MS); type: ADME; set-up: dose 2 uM, timepoint 0 vs 12 hours; conditions: 2 µM
# [18] = The drug is tested on Bacteroides finegoldii strain: DSM17565 for biotransformation. The drug concentrations were measured before and after a 12-h incubation by liquid-chromatography-coupled mass spectrometry (LC–MS); conditions: 2 µM
# [19] = The drug is tested on Ruminococcus torques strain: ATCC27756 for biotransformation. The drug concentrations were measured before and after a 12-h incubation by liquid-chromatography-coupled mass spectrometry (LC–MS); type: ADME; set-up: dose 2 uM, timepoint 0 vs 12 hours; conditions: 2 µM
SMILES,Bacterial Biotransformation [1],Bacterial Biotransformation [2],Bacterial Biotransformation [3],Bacterial Biotransformation [4],Bacterial Biotransformation [5],Bacterial Biotransformation [6],Bacterial Biotransformation [7],Bacterial Biotransformation [8],Bacterial Biotransformation [9],Bacterial Biotransformation [10],Bacterial Biotransformation [11],Bacterial Biotransformation [12],Bacterial Biotransformation [13],Bacterial Biotransformation [14],Bacterial Biotransformation [15],Bacterial Biotransformation [16],Bacterial Biotransformation [17],Bacterial Biotransformation [18],Bacterial Biotransformation [19]
CCc1cccc2c3c([nH]c12)C(CC)(CC(=O)O)OCC3 (stereo unspecified) [ETODOLAC],Compound NOT metabolized,Compound NOT metabolized,,Compound NOT metabolized,Compound NOT metabolized,,,Compound NOT metabolized,Compound NOT metabolized,Compound NOT metabolized,Compound metabolized,Compound metabolized,Compound NOT metabolized,,Compound metabolized,,Compound NOT metabolized,Compound NOT metabolized,Compound NOT metabolized
Cc1nc(-c2ccc(OCC(C)C)c(C#N)c2)sc1C(=O)O [FEBUXOSTAT],Compound NOT metabolized,Compound NOT metabolized,Compound metabolized,Compound NOT metabolized,Compound NOT metabolized,Compound metabolized,,,Compound metabolized,Compound NOT metabolized,Compound NOT metabolized,Compound metabolized,Compound NOT metabolized,Compound NOT metabolized,Compound metabolized,Compound NOT metabolized,,Compound NOT metabolized,Compound NOT metabolized
O=C(O)CCC(=O)O.O=C(O[C@H]1CN2CCC1CC2)N1CCc2ccccc2[C@@H]1c1ccccc1 [SOLIFENACIN SUCCINATE],Compound NOT metabolized,Compound NOT metabolized,,Compound NOT metabolized,Compound NOT metabolized,,Compound NOT metabolized,Compound NOT metabolized,Compound NOT metabolized,Compound NOT metabolized,Compound NOT metabolized,Compound NOT metabolized,Compound NOT metabolized,Compound NOT metabolized,Compound NOT metabolized,Compound NOT metabolized,Compound NOT metabolized,Compound NOT metabolized,Compound NOT metabolized
COc1cc2nc(N(C)CCCNC(=O)C3CCCO3)nc(N)c2cc1OC (stereo unspecified) [ALFUZOSIN],Compound NOT metabolized,Compound NOT metabolized,Compound metabolized,Compound NOT metabolized,Compound NOT metabolized,,Compound NOT metabolized,Compound NOT metabolized,,Compound NOT metabolized,,Compound NOT metabolized,Compound NOT metabolized,Compound NOT metabolized,,,Compound NOT metabolized,Compound NOT metabolized,Compound NOT metabolized
C[C@@H](c1ncncc1F)[C@](O)(Cn1cncn1)c1ccc(F)cc1F [VORICONAZOLE],Compound NOT metabolized,Compound NOT metabolized,Compound metabolized,Compound NOT metabolized,,Compound metabolized,Compound NOT metabolized,Compound NOT metabolized,Compound NOT metabolized,Compound NOT metabolized,Compound metabolized,Compound metabolized,Compound NOT metabolized,,Compound metabolized,Compound metabolized,,Compound NOT metabolized,Compound NOT metabolized

# Continued, values first:
Bacterial Biotransformation [1],Bacterial Biotransformation [2],Bacterial Biotransformation [3],Bacterial Biotransformation [4],Bacterial Biotransformation [5],Bacterial Biotransformation [6],Bacterial Biotransformation [7],Bacterial Biotransformation [8],Bacterial Biotransformation [9],Bacterial Biotransformation [10],Bacterial Biotransformation [11],Bacterial Biotransformation [12],Bacterial Biotransformation [13],Bacterial Biotransformation [14],Bacterial Biotransformation [15],Bacterial Biotransformation [16],Bacterial Biotransformation [17],Bacterial Biotransformation [18],Bacterial Biotransformation [19],SMILES
Compound NOT metabolized,Compound NOT metabolized,Compound NOT metabolized,Compound NOT metabolized,Compound NOT metabolized,Compound NOT metabolized,Compound NOT metabolized,Compound NOT metabolized,Compound NOT metabolized,Compound NOT metabolized,Compound NOT metabolized,Compound NOT metabolized,Compound NOT metabolized,Compound NOT metabolized,Compound NOT metabolized,Compound NOT metabolized,,,,CN1C(C(=O)Nc2ccccn2)=C(O)c2sccc2S1(=O)=O [TENOXICAM]
Compound NOT metabolized,Compound NOT metabolized,Compound NOT metabolized,Compound NOT metabolized,Compound NOT metabolized,Compound NOT metabolized,,,Compound NOT metabolized,Compound NOT metabolized,Compound NOT metabolized,Compound NOT metabolized,Compound NOT metabolized,Compound NOT metabolized,Compound NOT metabolized,Compound NOT metabolized,Compound NOT metabolized,Compound NOT metabolized,Compound NOT metabolized,CN[C@H]1CC[C@@H](c2ccc(Cl)c(Cl)c2)c2ccccc21 [SERTRALINE]
Compound NOT metabolized,Compound NOT metabolized,Compound NOT metabolized,Compound NOT metabolized,Compound NOT metabolized,,Compound NOT metabolized,Compound NOT metabolized,Compound NOT metabolized,Compound NOT metabolized,,Compound NOT metabolized,Compound NOT metabolized,Compound NOT metabolized,Compound NOT metabolized,,Compound NOT metabolized,Compound NOT metabolized,Compound NOT metabolized,c1ccc2[nH]c(-c3cscn3)nc2c1 [THIABENDAZOLE]
Compound metabolized,Compound NOT metabolized,Compound metabolized,Compound NOT metabolized,,Compound metabolized,,Compound metabolized,,Compound NOT metabolized,,Compound metabolized,Compound NOT metabolized,,Compound metabolized,,Compound NOT metabolized,Compound NOT metabolized,Compound NOT metabolized,COC1=CC(=O)C[C@@H](C)[C@]12Oc1c(Cl)c(OC)cc(OC)c1C2=O [GRISEOFULVIN]
Compound NOT metabolized,Compound NOT metabolized,Compound NOT metabolized,Compound NOT metabolized,Compound NOT metabolized,Compound NOT metabolized,Compound NOT metabolized,,Compound NOT metabolized,Compound NOT metabolized,,Compound NOT metabolized,Compound NOT metabolized,Compound NOT metabolized,Compound NOT metabolized,Compound NOT metabolized,Compound NOT metabolized,Compound NOT metabolized,Compound NOT metabolized,N=C(N)NC(=O)Cc1c(Cl)cccc1Cl [GUANFACINE]
